According to ChEMBL document CHEMBL4507256 (2021):

Experiments:
[1] = tested on: Phosphatidylinositol 4,5-bisphosphate 3-kinase catalytic subunit alpha isoform (Homo sapiens), P42336 [H1047L]; settings: Compound concentration 1000.0 nM
[2] = target: Ephrin type-A receptor 2 (Homo sapiens) (UniProt P29317); settings: Compound concentration 1000.0 nM
[3] = target: Beta-3 adrenergic receptor (Homo sapiens) (UniProt P13945); settings: Compound concentration 10.0 uM
[4] = target: Serine/threonine-protein kinase 10 (Homo sapiens) (UniProt O94804); settings: Compound concentration 1000.0 nM
[5] = target: Serine/threonine-protein kinase tousled-like 2 (Homo sapiens) (UniProt Q86UE8); settings: Compound concentration 1000.0 nM
[6] = target: Activin receptor type-1 (Homo sapiens) (UniProt Q04771); settings: Compound concentration 1000.0 nM
Activin receptor type-1 (Homo sapiens), sequence (Q04771 whole entry): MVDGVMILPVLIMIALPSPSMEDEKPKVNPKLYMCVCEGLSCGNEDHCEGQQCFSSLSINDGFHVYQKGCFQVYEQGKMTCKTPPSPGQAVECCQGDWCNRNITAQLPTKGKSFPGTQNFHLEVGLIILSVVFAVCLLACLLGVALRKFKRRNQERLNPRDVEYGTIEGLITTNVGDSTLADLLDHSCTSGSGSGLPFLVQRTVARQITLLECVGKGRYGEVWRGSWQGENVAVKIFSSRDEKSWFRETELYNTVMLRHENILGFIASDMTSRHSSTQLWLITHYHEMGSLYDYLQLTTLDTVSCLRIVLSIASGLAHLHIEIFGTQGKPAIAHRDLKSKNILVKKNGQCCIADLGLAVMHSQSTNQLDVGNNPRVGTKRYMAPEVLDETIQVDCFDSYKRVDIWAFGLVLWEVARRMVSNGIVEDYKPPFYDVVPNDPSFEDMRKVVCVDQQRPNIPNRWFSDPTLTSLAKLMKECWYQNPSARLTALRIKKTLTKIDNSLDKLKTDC

[7] = species on record: Rattus norvegicus; settings: Compound concentration 10.0 uM
[8] = target: Dual specificity protein kinase CLK3 (Homo sapiens) (UniProt P49761); settings: Compound concentration 1000.0 nM
Dual specificity protein kinase CLK3 (Homo sapiens), sequence (P49761 whole entry, looked up): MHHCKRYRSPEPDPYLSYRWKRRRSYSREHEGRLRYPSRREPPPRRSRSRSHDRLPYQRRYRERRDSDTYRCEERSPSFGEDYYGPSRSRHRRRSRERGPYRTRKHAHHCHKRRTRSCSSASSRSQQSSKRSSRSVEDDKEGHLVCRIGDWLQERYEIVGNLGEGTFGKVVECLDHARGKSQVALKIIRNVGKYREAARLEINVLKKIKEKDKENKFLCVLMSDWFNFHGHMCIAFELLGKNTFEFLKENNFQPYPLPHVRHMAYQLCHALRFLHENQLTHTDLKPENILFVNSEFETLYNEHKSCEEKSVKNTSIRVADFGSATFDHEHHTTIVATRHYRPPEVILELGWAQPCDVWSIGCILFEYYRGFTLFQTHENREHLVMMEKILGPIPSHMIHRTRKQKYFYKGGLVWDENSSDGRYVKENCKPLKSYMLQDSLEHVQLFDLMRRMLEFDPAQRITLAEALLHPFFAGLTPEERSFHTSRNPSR

[9] = target: Serine/threonine-protein kinase 32C (Homo sapiens) (UniProt Q86UX6); settings: Compound concentration 1000.0 nM
[10] = target: T1, D(4) dopamine receptor (Homo sapiens) (UniProt P21917); settings: Compound concentration 10.0 uM
T1 sequence (whole entry): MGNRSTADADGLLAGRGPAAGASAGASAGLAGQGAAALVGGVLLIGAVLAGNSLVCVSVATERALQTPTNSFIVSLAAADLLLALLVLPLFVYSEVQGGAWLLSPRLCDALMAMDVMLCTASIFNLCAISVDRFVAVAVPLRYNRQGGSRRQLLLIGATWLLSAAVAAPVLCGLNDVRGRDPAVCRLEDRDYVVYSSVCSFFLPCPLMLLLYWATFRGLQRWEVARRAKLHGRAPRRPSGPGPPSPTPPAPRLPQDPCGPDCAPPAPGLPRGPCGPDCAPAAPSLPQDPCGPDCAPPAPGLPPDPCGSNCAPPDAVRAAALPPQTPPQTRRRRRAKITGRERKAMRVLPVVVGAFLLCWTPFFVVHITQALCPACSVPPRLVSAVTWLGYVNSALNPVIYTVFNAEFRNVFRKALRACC

[11] = target: Ephrin type-A receptor 7 (Homo sapiens) (UniProt Q15375); settings: Compound concentration 1000.0 nM
[12] = target: Tyrosine-protein kinase Lck (Homo sapiens) (UniProt P06239); settings: Compound concentration 1000.0 nM
Tyrosine-protein kinase Lck (Homo sapiens), sequence (P06239 2-509 limits assumed): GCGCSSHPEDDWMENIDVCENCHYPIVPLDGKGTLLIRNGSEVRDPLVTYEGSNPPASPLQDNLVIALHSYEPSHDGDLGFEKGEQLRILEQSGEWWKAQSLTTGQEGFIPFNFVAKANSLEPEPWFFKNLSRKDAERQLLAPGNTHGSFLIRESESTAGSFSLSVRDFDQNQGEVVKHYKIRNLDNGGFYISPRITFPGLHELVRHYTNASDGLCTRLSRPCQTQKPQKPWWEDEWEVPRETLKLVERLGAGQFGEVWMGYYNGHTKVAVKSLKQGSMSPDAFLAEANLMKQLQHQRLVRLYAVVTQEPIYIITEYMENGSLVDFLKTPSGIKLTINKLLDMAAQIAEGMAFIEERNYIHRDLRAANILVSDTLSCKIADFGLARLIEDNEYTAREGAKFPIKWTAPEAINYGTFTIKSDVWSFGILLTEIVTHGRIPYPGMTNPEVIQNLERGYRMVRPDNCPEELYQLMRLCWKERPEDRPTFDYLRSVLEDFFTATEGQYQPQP

[13] = target: Platelet-derived growth factor receptor alpha (Homo sapiens) (UniProt P16234); settings: Compound concentration 1000.0 nM
[14] = target: Phosphatidylinositol 3-kinase C2 domain-containing subunit gamma (Homo sapiens) (UniProt O75747); settings: Compound concentration 1000.0 nM
[15] = target: RAF proto-oncogene serine/threonine-protein kinase (Homo sapiens) (UniProt P04049); settings: Compound concentration 1000.0 nM
[16] = target: Receptor tyrosine-protein kinase erbB-3 (Homo sapiens) (UniProt P21860); settings: Compound concentration 1000.0 nM
[17] = tested on: Tyrosine-protein kinase ABL1 (Homo sapiens), P00519 [Q252H]; settings: Compound concentration 1000.0 nM
[18] = target: Cyclin-dependent kinase 17 (Homo sapiens) (UniProt Q00537); settings: Compound concentration 1000.0 nM
[19] = target: Calcium/calmodulin-dependent protein kinase type II subunit gamma (Homo sapiens) (UniProt Q13555); settings: Compound concentration 1000.0 nM
[20] = target: Fibroblast growth factor receptor 4 (Homo sapiens) (UniProt P22455); settings: Compound concentration 1000.0 nM
[21] = target: Maternal embryonic leucine zipper kinase (Homo sapiens) (UniProt Q14680); settings: Compound concentration 1000.0 nM
[22] = target: NUAK family SNF1-like kinase 1 (Homo sapiens) (UniProt O60285); settings: Compound concentration 1000.0 nM
NUAK family SNF1-like kinase 1 (Homo sapiens), sequence (O60285 whole entry): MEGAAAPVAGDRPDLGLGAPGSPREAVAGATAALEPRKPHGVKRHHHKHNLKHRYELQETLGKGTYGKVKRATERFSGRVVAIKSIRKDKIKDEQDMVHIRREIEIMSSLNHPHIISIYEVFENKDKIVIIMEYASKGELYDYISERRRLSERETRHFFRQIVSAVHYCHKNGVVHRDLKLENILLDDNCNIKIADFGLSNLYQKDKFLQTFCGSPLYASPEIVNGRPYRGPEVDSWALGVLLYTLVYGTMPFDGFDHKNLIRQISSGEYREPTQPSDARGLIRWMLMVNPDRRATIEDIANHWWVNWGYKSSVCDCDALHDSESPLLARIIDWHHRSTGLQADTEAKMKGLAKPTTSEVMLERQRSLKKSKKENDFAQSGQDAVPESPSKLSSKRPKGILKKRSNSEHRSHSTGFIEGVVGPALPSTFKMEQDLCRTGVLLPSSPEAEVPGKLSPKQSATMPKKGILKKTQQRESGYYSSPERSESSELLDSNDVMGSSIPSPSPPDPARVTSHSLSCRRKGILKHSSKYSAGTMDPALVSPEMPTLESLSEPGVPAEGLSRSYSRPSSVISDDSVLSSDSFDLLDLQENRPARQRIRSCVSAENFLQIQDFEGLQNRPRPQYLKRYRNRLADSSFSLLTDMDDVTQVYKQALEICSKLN

[23] = target: Serine/threonine-protein kinase tousled-like 1 (Homo sapiens) (UniProt Q9UKI8); settings: Compound concentration 1000.0 nM
Serine/threonine-protein kinase tousled-like 1 (Homo sapiens), sequence (Q9UKI8 whole entry): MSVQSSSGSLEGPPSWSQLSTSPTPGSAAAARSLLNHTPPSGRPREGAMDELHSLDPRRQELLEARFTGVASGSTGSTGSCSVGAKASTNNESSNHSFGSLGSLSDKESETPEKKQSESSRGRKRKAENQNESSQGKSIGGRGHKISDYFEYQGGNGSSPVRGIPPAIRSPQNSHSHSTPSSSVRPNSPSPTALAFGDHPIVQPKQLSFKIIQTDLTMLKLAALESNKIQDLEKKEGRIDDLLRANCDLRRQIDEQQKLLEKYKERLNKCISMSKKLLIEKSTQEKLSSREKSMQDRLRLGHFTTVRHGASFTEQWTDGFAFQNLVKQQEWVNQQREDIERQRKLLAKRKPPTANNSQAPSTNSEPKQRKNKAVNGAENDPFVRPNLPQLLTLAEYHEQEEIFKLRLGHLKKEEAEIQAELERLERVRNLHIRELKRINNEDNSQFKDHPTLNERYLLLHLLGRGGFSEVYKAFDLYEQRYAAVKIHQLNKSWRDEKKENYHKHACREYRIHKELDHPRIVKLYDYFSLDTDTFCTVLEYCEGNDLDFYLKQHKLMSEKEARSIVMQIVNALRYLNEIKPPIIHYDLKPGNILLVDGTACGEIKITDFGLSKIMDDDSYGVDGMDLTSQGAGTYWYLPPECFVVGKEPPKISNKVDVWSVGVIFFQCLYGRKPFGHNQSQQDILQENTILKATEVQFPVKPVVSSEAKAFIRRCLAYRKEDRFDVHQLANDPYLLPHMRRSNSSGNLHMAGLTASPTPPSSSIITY

[24] = target: Ephrin type-A receptor 4 (Homo sapiens) (UniProt P54764); settings: Compound concentration 1000.0 nM
[25] = target: Mitogen-activated protein kinase 11 (Homo sapiens) (UniProt Q15759); settings: Compound concentration 1000.0 nM
[26] = tested on: Mast/stem cell growth factor receptor Kit (Homo sapiens), P10721 [V559D,V654A]; settings: Compound concentration 1000.0 nM
[27] = target: Serine/threonine-protein kinase Nek11 (Homo sapiens) (UniProt Q8NG66); settings: Compound concentration 1000.0 nM
Serine/threonine-protein kinase Nek11 (Homo sapiens), sequence (Q8NG66 whole entry, canonical isoform): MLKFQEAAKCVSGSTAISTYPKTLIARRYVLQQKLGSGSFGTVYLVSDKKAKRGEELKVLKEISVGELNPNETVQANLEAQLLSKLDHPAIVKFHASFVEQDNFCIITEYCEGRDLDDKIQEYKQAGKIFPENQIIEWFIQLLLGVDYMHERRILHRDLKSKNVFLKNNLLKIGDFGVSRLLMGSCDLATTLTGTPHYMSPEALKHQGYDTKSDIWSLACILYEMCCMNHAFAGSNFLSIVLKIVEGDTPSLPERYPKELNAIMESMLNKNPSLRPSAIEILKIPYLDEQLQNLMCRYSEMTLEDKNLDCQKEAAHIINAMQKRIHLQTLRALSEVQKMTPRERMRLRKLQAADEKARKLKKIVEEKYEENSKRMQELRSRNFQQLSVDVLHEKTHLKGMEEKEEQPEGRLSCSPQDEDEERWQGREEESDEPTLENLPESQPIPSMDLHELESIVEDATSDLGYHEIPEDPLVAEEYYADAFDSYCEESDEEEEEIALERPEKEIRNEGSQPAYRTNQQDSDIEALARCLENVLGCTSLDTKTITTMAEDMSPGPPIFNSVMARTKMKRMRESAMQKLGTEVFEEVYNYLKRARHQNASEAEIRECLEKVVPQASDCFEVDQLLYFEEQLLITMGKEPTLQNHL

[28] = tested on: Phosphatidylinositol 4,5-bisphosphate 3-kinase catalytic subunit alpha isoform (Homo sapiens), P42336 [H1047Y]; settings: Compound concentration 1000.0 nM
[29] = target: 5-hydroxytryptamine receptor 2B (Homo sapiens) (UniProt P41595); settings: Compound concentration 10.0 uM
[30] = target: Beta-2 adrenergic receptor (Homo sapiens) (UniProt P07550); settings: Compound concentration 10.0 uM
[31] = tested on: Mast/stem cell growth factor receptor Kit (Homo sapiens), P10721 [D816H]; settings: Compound concentration 1000.0 nM
[32] = target: Serine/threonine-protein kinase 26 (Homo sapiens) (UniProt Q9P289); settings: Compound concentration 1000.0 nM
[33] = target: Hormonally up-regulated neu tumor-associated kinase (Homo sapiens) (UniProt P57058); settings: Compound concentration 1000.0 nM
[34] = target: STE20-like serine/threonine-protein kinase (Homo sapiens) (UniProt Q9H2G2); settings: Compound concentration 1000.0 nM
[35] = target: Mitogen-activated protein kinase kinase kinase 20 (Homo sapiens) (UniProt Q9NYL2); settings: Compound concentration 1000.0 nM
[36] = target: Interleukin-1 receptor-associated kinase 1 (Homo sapiens) (UniProt P51617); settings: Compound concentration 1000.0 nM
Interleukin-1 receptor-associated kinase 1 (Homo sapiens), sequence (P51617 whole entry, looked up): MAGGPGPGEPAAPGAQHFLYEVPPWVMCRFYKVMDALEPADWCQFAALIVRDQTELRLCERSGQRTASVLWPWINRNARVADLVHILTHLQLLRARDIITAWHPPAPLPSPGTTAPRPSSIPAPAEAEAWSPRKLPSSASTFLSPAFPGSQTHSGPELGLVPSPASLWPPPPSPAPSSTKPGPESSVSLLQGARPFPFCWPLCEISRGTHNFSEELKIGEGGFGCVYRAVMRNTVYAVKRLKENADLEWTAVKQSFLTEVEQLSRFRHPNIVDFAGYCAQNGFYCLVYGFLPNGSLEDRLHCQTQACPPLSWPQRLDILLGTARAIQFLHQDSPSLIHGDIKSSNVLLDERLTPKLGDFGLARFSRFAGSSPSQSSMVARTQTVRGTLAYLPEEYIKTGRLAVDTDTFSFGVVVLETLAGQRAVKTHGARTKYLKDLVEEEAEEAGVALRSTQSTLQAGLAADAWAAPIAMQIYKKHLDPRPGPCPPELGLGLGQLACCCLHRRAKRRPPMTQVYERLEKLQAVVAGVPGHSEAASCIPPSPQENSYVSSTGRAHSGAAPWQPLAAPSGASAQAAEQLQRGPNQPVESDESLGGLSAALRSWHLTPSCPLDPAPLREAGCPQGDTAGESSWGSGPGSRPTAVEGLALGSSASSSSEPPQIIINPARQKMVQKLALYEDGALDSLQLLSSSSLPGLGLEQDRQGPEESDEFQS

[37] = target: Homeodomain-interacting protein kinase 4 (Homo sapiens) (UniProt Q8NE63); settings: Compound concentration 1000.0 nM
Homeodomain-interacting protein kinase 4 (Homo sapiens), sequence (Q8NE63 whole entry): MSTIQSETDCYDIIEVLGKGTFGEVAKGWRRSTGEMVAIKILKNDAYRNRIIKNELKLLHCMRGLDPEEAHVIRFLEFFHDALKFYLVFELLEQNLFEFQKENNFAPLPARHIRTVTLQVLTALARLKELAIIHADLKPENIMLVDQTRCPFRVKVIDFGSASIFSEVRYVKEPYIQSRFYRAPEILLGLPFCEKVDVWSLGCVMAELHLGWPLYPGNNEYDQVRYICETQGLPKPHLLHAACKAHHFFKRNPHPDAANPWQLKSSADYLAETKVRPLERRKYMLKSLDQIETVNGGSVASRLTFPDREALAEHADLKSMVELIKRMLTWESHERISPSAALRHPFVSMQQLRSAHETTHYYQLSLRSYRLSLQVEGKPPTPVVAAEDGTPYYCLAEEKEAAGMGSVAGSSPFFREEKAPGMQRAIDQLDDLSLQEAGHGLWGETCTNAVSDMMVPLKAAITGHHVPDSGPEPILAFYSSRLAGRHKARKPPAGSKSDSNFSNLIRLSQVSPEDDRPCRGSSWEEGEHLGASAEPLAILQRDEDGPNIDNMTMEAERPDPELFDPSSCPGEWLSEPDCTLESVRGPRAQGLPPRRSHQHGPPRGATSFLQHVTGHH

[38] = target: Transient receptor potential cation channel subfamily M member 6 (Homo sapiens) (UniProt Q9BX84); settings: Compound concentration 1000.0 nM
[39] = target: MAP/microtubule affinity-regulating kinase 3 (Homo sapiens) (UniProt P27448); settings: Compound concentration 1000.0 nM

Row | SMILES | residual activity [1] [%] | residual activity [2] [%] | inhibition [3] [%] | residual activity [4] [%] | residual activity [5] [%] | residual activity [6] [%] | inhibition [7] [%] | residual activity [8] [%] | residual activity [9] [%] | inhibition [10] [%] | residual activity [11] [%] | residual activity [12] [%] | residual activity [13] [%] | residual activity [14] [%] | residual activity [15] [%] | residual activity [16] [%] | residual activity [17] [%] | residual activity [18] [%] | residual activity [19] [%] | residual activity [20] [%] | also measured
1 | CCC(=N\O)/C(C)=C/c1ccc(F)c(C)c1 [A-226] | 100 | 89 | 11.1 | 73 | 100 | 100 | 50.6 | 100 | 100 | 18.6 | 92 | 87 | 100 | 98 | 99 | 76 | 100 | 99 | 90 | 83 | residual activity [21]: 100%; residual activity [22]: 96%; residual activity [23]: 100%; residual activity [24]: 100%; residual activity [25]: 82%; residual activity [26]: 100%; residual activity [27]: 100%; residual activity [28]: 100%; inhibition [29]: 43.8%; inhibition [30]: -1.29%; residual activity [31]: 100%; residual activity [32]: 100%; residual activity [33]: 91%; residual activity [34]: 93%; residual activity [35]: 76%; residual activity [36]: 100%; residual activity [37]: 91%; residual activity [38]: 100%; residual activity [39]: 100%
2 | CCC(=N\O)/C(C)=C/c1ccc(F)cc1 [A-079] | 100 | 84 | -0.54 | 76 | 100 | 80 | 11.9 | 73 | 65 | 19.5 | 86 | 82 | 78 | 75 | 91 | 100 | 90 | 90 | 100 | 96 | residual activity [21]: 96%; residual activity [22]: 100%; residual activity [23]: 100%; residual activity [24]: 74%; residual activity [25]: 82%; residual activity [26]: 73%; residual activity [27]: 100%; residual activity [28]: 82%; inhibition [29]: 24.7%; inhibition [30]: 6.61%; residual activity [31]: 65%; residual activity [32]: 81%; residual activity [33]: 76%; residual activity [34]: 91%; residual activity [35]: 84%; residual activity [36]: 79%; residual activity [37]: 79%; residual activity [38]: 64%; residual activity [39]: 86%
